Earlier results in patent US10751314B2, “Compositions comprising rumenic acid-rich conjugated linoleic acid for joint health” (STEPAN SPECIALTY PRODUCTS, LLC, priority 2016, dated 2020).

Columns and labels:
[1] = tested on: young men and women with birch pollen allergy; details: 8 weeks of supplementation
[2] = tested on: human epithelial cells; details: via activation of PPARγ
[3] = tested on: PPARγ; details: mouse macrophage cells

**Q.** Which “Allergic responses mediated by inflammation” value [1] does the source give for CCCCCC/C=C/C=C\CCCCCCCC(=O)O [RA, cis-9, trans-11 linoleic acid] here?
**A.** reduced

**Q.** What about the Inflammatory responses [2] of the same molecule?
**A.** reduced inflammatory responses

**Q.** What about the Antioxidant activity [3] of the same molecule?
**A.** served as an antioxidant

**Q.** And the PPARγ activation [3]?
**A.** activated
